PubChem BioAssay (NCI)
Several values for one entry are separate records, joined by “and”; a condition that tells them apart may be missing. Equal values may be shown once.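 Values below derive from 48-hour exposures of cells grown in 96-well plates, with endpoints linearly interpolated between the two concentrations bracketing the appropriate inhibition level. GI50 is the concentration that inhibits growth by half. TGI is the concentration that stops growth completely.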

Key:
Experiment in all cases: NCI-60 cell line screen, 48 h
ACHN renal = system: ACHN renal
NCI-H23 lung = system: NCI-H23 lung
DMS 273 small cell lung = system: DMS 273 small cell lung
UACC-257 melanoma = system: UACC-257 melanoma
SNB-75 CNS = system: SNB-75 CNS
RPMI-8226 leukemia = system: RPMI-8226 leukemia
A549 NSCLC = system: A549 NSCLC
MCF7 breast = system: MCF7 breast
HS 578T breast = system: HS 578T breast
SNB-78 CNS = system: SNB-78 CNS

SMILES	GI50 (ACHN renal)	TGI (ACHN renal)	GI50 (NCI-H23 lung)	TGI (NCI-H23 lung)	GI50 (DMS 273 small cell lung)	TGI (DMS 273 small cell lung)	GI50 (UACC-257 melanoma)	TGI (UACC-257 melanoma)	GI50 (SNB-75 CNS)	TGI (SNB-75 CNS)	GI50 (RPMI-8226 leukemia)	TGI (RPMI-8226 leukemia)	GI50 (A549 NSCLC)	TGI (A549 NSCLC)	TGI (MCF7 breast)	TGI (HS 578T breast)	TGI (SNB-78 CNS)
CC[O-].CC[O-].O=C1C=C([O-])C(=O)c2ccccc21.O=C1C=C([O-])C(=O)c2ccccc21.[Ti+4]	71 µM	> 100 µM	4.43 µM	> 100 µM	> 63.5 µM	> 100 µM	> 27.9 µM	> 100 µM	4.99 µM	> 90.1 µM	8.08 µM	> 100 µM	26 µM	> 100 µM	–	–	–
CC(C)(C)N1CC1CNC(=O)C(=O)NCC1CN1C(C)(C)C (configuration not stated)	–	13.7 µM	–	5.96 µM	–	0.517 µM	–	11.1 µM	–	13.2 µM	–	> 18.3 µM	–	21.1 µM	> 100 µM	> 100 µM	–
CC1=C2CC[C@@]3(C)C(=CCC3O)C2(C)CCC1=O (some centres not stated)	–	> 100 µM	–	–	–	> 100 µM	–	> 100 µM	–	> 100 µM	–	> 100 µM	–	> 100 µM	–	–	> 100 µM
CC(=O)Oc1ccc2c(=O)c(C(C)=O)coc2c1	–	> 100 µM	–	> 100 µM	–	> 100 µM	–	> 100 µM	–	–	–	> 100 µM	–	> 100 µM	–	–	> 100 µM
OC1CC(O)O[C@H](c2ccccc2)C1 (some centres not stated)	–	> 100 µM	–	> 100 µM	–	> 100 µM	–	> 100 µM	–	> 100 µM	–	> 100 µM	–	> 100 µM	–	–	> 100 µM
COC(=O)c1cc(O)ccc1O	–	> 100 µM	–	–	–	> 100 µM	–	> 100 µM	–	> 100 µM	–	> 100 µM	–	> 100 µM	–	–	> 100 µM
CCCCCCCCCCCCC(O)C1CCC(C(O)CCCCC(O)CCCCCC2CC(CC(C)=O)C(=O)O2)O1 (configuration not stated)	–	26.1 µM	–	13.6 µM	–	13 µM	1.13 µM	5.08 µM and 6.25 µM	1.25 µM	5.42 µM and 16.4 µM	1.28 µM and 0.367 µM	4.73 µM and 18.5 µM	1.55 µM	18.7 µM	3.82 µM	3.8 µM	> 41 µM
OC1(C(Sc2ccccc2)Sc2ccccc2)CCCCCC1	–	64.5 µM	–	> 100 µM	–	76.5 µM	–	69.4 µM	–	> 100 µM	–	52.4 µM	–	89.5 µM	–	–	> 100 µM
NNC(=O)/C(NC(=O)c1ccccc1)=C(\N)c1cccc([N+](=O)[O-])c1	–	> 100 µM	–	> 100 µM	–	> 100 µM	–	> 100 µM	–	> 100 µM	–	> 100 µM	–	> 100 µM	–	–	> 100 µM
CC(=O)OCc1nnn2c1C(OC(C)=O)CC2 (configuration not stated)	–	> 100 µM	–	> 100 µM	–	> 100 µM	–	> 100 µM	–	> 100 µM	–	> 100 µM	–	> 100 µM	–	–	> 100 µM
CCOC(=O)CCc1c(C)c2c(OC)cc(OC)cc2oc1=O	–	> 100 µM	–	> 100 µM	–	> 100 µM	–	> 100 µM	–	> 100 µM	–	–	–	> 100 µM	–	–	> 100 µM
CCOC(=O)C(C(=O)OCC)=C1C=C(c2ccccc2)c2ccccc21	–	> 100 µM	–	> 100 µM	–	> 100 µM	–	> 100 µM	–	> 100 µM	–	89.4 µM	–	> 100 µM	–	–	> 100 µM
C[C@@H](NC1CCCC[C@@H]1O)c1ccccc1 (some centres not stated)	–	> 100 µM	–	–	–	> 100 µM	–	> 100 µM	–	> 100 µM	–	> 100 µM	–	> 100 µM	–	–	> 100 µM
